# From patent US20110150836A1, “METHODS OF TREATING HBV AND HCV INFECTION” (Gilead Sciences, Inc., priority 2009, published 2011)
# Test system: cytokines and interferon-inducible genes
# Assay: mRNA expression of cytokines and interferon-inducible genes in whole blood of healthy woodchucks (real time PCR)
# Assay type: in vivo
# Protocol: Compound A was administered orally to adult, WHV-negative woodchucks at two different doses. Three male woodchucks received Compound A at 0.05 mg/kg and three other male woodchucks at 0.5 mg/kg. Whole blood samples (4 mls) were collected from each woodchuck prior to dosing at T0, and then at 4, 8, 12, and 24 hours post-dose using EDTA-containing collection tubes.
# The induction of an immune response in woodchucks following administration of Compound A was determined by measuring the mRNA expression of cytokines and interferon-inducible genes in whole blood samples collected at different time points. Total RNA was isolated using the QIAamp RNA Blood Mini Kit (Qiagen) according to the manufacturer's specifications. RNA was eluted into 40 μl nuclease-free water and stored at −70° C. The concentration of RNA was determined spectrophotometrically at OD 260 nm. Two μg of RNA were treated with DNase I (Invitrogen) and reverse transcribed to cDNA with MultiScribe Reverse Transcriptase (Applied Biosystems) using random hexamers. Triplicates of 2 μl cDNA were amplified by real time PCR on an ABI PRISM 7000 Sequence Detection instrument (Applied Biosystems) using SYBR GREEN Master Mix (Applied Biosystems) and woodchuck-specific primers. Amplified target genes included IFN-α, IFN-γ, TNF-α, IL-2, IL-6, IL-10 IL-12, 2′5′-OAS, IDO, and MxA. Woodchuck β-actin mRNA expression was used to normalize target gene expression. Transcription levels of woodchuck cytokines and interferon-inducible genes were represented by the formula 2ΔCt, where ΔCt indicates the difference in the threshold cycle between β-actin and target gene expression. Results were further represented as a fold-change from the transcription level at T0.
structure (smiles),measurement,setting,value
"CCCCOc1nc(N)c2nc(O)n(Cc3cccc(CN4CCCC4)c3)c2n1 [Compound A, 6-amino-2-butoxy-9-(3-(pyrrolidin-1-ylmethyl)benzyl)-9H-purin-8-ol]","2′5′-OAS mRNA expression in peripheral blood, Mean","oral 0.05 mg/kg, 4 hrs",13.89
same,"2′5′-OAS mRNA expression, Fold-change from T0","oral 0.05 mg/kg, 4 hrs",3.8 fold
same,"IDO mRNA expression in peripheral blood, Mean","oral 0.05 mg/kg, 4 hrs",1.30
same,"IDO mRNA expression, Fold-change from T0","oral 0.05 mg/kg, 4 hrs",1.1 fold
same,"IFN-a mRNA expression in peripheral blood, Mean","oral 0.05 mg/kg, 4 hrs",7.21
same,"IFN-a mRNA expression, Fold-change from T0","oral 0.05 mg/kg, 4 hrs",3.1 fold
same,"IFN-γ mRNA expression in peripheral blood, Mean","oral 0.05 mg/kg, 4 hrs",2.03
same,"IFN-γ mRNA expression, Fold-change from T0","oral 0.05 mg/kg, 4 hrs",1.6 fold
same,"IL-2 mRNA expression in peripheral blood, Mean","oral 0.05 mg/kg, 4 hrs",2.11
same,"IL-2 mRNA expression, Fold-change from T0","oral 0.05 mg/kg, 4 hrs",1.9 fold
same,"IL-6 mRNA expression in peripheral blood, Mean","oral 0.05 mg/kg, 4 hrs",9.75
same,"IL-6 mRNA expression, Fold-change from T0","oral 0.05 mg/kg, 4 hrs",2.3 fold
same,"IL-10 mRNA expression in peripheral blood, Mean","oral 0.05 mg/kg, 4 hrs",4.14
same,"IL-10 mRNA expression, Fold-change from T0","oral 0.05 mg/kg, 4 hrs",1.7 fold
same,"IL-12 mRNA expression in peripheral blood, Mean","oral 0.05 mg/kg, 4 hrs",7.27
same,"IL-12 mRNA expression, Fold-change from T0","oral 0.05 mg/kg, 4 hrs",4.5 fold
same,"MxA mRNA expression in peripheral blood, Mean","oral 0.05 mg/kg, 4 hrs",2.26
same,"MxA mRNA expression, Fold-change from T0","oral 0.05 mg/kg, 4 hrs",1.4 fold
same,"TNF-a mRNA expression in peripheral blood, Mean","oral 0.05 mg/kg, 4 hrs",23.83
same,"TNF-a mRNA expression, Fold-change from T0","oral 0.05 mg/kg, 4 hrs",3.5 fold
same,"2′5′-OAS mRNA expression in peripheral blood, Mean","oral 0.05 mg/kg, 8 hrs",16.96
same,"2′5′-OAS mRNA expression, Fold-change from T0","oral 0.05 mg/kg, 8 hrs",4.8 fold
same,"IDO mRNA expression in peripheral blood, Mean","oral 0.05 mg/kg, 8 hrs",2.05
same,"IDO mRNA expression, Fold-change from T0","oral 0.05 mg/kg, 8 hrs",2.2 fold
same,"IFN-a mRNA expression in peripheral blood, Mean","oral 0.05 mg/kg, 8 hrs",12.99
same,"IFN-a mRNA expression, Fold-change from T0","oral 0.05 mg/kg, 8 hrs",4.2 fold
same,"IFN-γ mRNA expression in peripheral blood, Mean","oral 0.05 mg/kg, 8 hrs",4.34
same,"IFN-γ mRNA expression, Fold-change from T0","oral 0.05 mg/kg, 8 hrs",3.4 fold
same,"IL-2 mRNA expression in peripheral blood, Mean","oral 0.05 mg/kg, 8 hrs",1.74
same,"IL-2 mRNA expression, Fold-change from T0","oral 0.05 mg/kg, 8 hrs",1.5 fold
same,"IL-6 mRNA expression in peripheral blood, Mean","oral 0.05 mg/kg, 8 hrs",10.57
same,"IL-6 mRNA expression, Fold-change from T0","oral 0.05 mg/kg, 8 hrs",2.6 fold
same,"IL-10 mRNA expression in peripheral blood, Mean","oral 0.05 mg/kg, 8 hrs",8.48
same,"IL-10 mRNA expression, Fold-change from T0","oral 0.05 mg/kg, 8 hrs",3.4 fold
same,"IL-12 mRNA expression in peripheral blood, Mean","oral 0.05 mg/kg, 8 hrs",7.35
same,"IL-12 mRNA expression, Fold-change from T0","oral 0.05 mg/kg, 8 hrs",4.7 fold
same,"MxA mRNA expression in peripheral blood, Mean","oral 0.05 mg/kg, 8 hrs",5.93
same,"MxA mRNA expression, Fold-change from T0","oral 0.05 mg/kg, 8 hrs",3.8 fold
same,"TNF-a mRNA expression in peripheral blood, Mean","oral 0.05 mg/kg, 8 hrs",20.72
same,"TNF-a mRNA expression, Fold-change from T0","oral 0.05 mg/kg, 8 hrs",3.0 fold
same,"2′5′-OAS mRNA expression in peripheral blood, Mean","oral 0.05 mg/kg, 12 hrs",54.92
same,"2′5′-OAS mRNA expression, Fold-change from T0","oral 0.05 mg/kg, 12 hrs",15.6 fold
same,"IDO mRNA expression in peripheral blood, Mean","oral 0.05 mg/kg, 12 hrs",10.64
same,"IDO mRNA expression, Fold-change from T0","oral 0.05 mg/kg, 12 hrs",7.7 fold
same,"IFN-a mRNA expression in peripheral blood, Mean","oral 0.05 mg/kg, 12 hrs",3.82
same,"IFN-a mRNA expression, Fold-change from T0","oral 0.05 mg/kg, 12 hrs",1.3 fold
same,"IFN-γ mRNA expression in peripheral blood, Mean","oral 0.05 mg/kg, 12 hrs",2.64
same,"IFN-γ mRNA expression, Fold-change from T0","oral 0.05 mg/kg, 12 hrs",2.0 fold
same,"IL-2 mRNA expression in peripheral blood, Mean","oral 0.05 mg/kg, 12 hrs",2.43
same,"IL-2 mRNA expression, Fold-change from T0","oral 0.05 mg/kg, 12 hrs",2.1 fold
same,"IL-6 mRNA expression in peripheral blood, Mean","oral 0.05 mg/kg, 12 hrs",6.22
same,"IL-6 mRNA expression, Fold-change from T0","oral 0.05 mg/kg, 12 hrs",1.5 fold
same,"IL-10 mRNA expression in peripheral blood, Mean","oral 0.05 mg/kg, 12 hrs",7.35
same,"IL-10 mRNA expression, Fold-change from T0","oral 0.05 mg/kg, 12 hrs",3.0 fold
same,"IL-12 mRNA expression in peripheral blood, Mean","oral 0.05 mg/kg, 12 hrs",21.12
same,"IL-12 mRNA expression, Fold-change from T0","oral 0.05 mg/kg, 12 hrs",12.7 fold
same,"MxA mRNA expression in peripheral blood, Mean","oral 0.05 mg/kg, 12 hrs",18.70
same,"MxA mRNA expression, Fold-change from T0","oral 0.05 mg/kg, 12 hrs",12.5 fold
same,"TNF-a mRNA expression in peripheral blood, Mean","oral 0.05 mg/kg, 12 hrs",35.05
same,"TNF-a mRNA expression, Fold-change from T0","oral 0.05 mg/kg, 12 hrs",5.2 fold
same,"2′5′-OAS mRNA expression in peripheral blood, Mean","oral 0.05 mg/kg, 24 hrs",36.91
same,"2′5′-OAS mRNA expression, Fold-change from T0","oral 0.05 mg/kg, 24 hrs",11.9 fold
same,"IDO mRNA expression in peripheral blood, Mean","oral 0.05 mg/kg, 24 hrs",26.71
same,"IDO mRNA expression, Fold-change from T0","oral 0.05 mg/kg, 24 hrs",25.6 fold
same,"IFN-a mRNA expression in peripheral blood, Mean","oral 0.05 mg/kg, 24 hrs",2.63
same,"IFN-a mRNA expression, Fold-change from T0","oral 0.05 mg/kg, 24 hrs",1.0 fold
same,"IFN-γ mRNA expression in peripheral blood, Mean","oral 0.05 mg/kg, 24 hrs",1.82
same,"IFN-γ mRNA expression, Fold-change from T0","oral 0.05 mg/kg, 24 hrs",1.2 fold
same,"IL-2 mRNA expression in peripheral blood, Mean","oral 0.05 mg/kg, 24 hrs",3.64
same,"IL-2 mRNA expression, Fold-change from T0","oral 0.05 mg/kg, 24 hrs",3.2 fold
same,"IL-6 mRNA expression in peripheral blood, Mean","oral 0.05 mg/kg, 24 hrs",4.30
same,"IL-6 mRNA expression, Fold-change from T0","oral 0.05 mg/kg, 24 hrs",1.1 fold
same,"IL-10 mRNA expression in peripheral blood, Mean","oral 0.05 mg/kg, 24 hrs",6.08
same,"IL-10 mRNA expression, Fold-change from T0","oral 0.05 mg/kg, 24 hrs",2.3 fold
same,"MxA mRNA expression in peripheral blood, Mean","oral 0.05 mg/kg, 24 hrs",117.33
same,"MxA mRNA expression, Fold-change from T0","oral 0.05 mg/kg, 24 hrs",69.3 fold
same,"TNF-a mRNA expression in peripheral blood, Mean","oral 0.05 mg/kg, 24 hrs",20.53
same,"TNF-a mRNA expression, Fold-change from T0","oral 0.05 mg/kg, 24 hrs",3.2 fold
same,"2′5′-OAS mRNA expression in peripheral blood, Mean","oral 0.5 mg/kg, 4 hrs",33.05
same,"2′5′-OAS mRNA expression, Fold-change from T0","oral 0.5 mg/kg, 4 hrs",6.5 fold
